Test systems include PC-3; TK-10; SF-268; IGROV-1; NCI-H226; MDA-N; 786-0; UO-31; UACC-257; SF-295; COLO 205; RXF 393; CAKI-1; OVCAR-4; HCT-116; SR; OVCAR-8; MDA-MB-435; NCI-H460; ACHN.
Holding throughout (experiment): NCI anticancer screen, dose series, 48 h

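Where inhibition never reached the appropriate level, the endpoint shown equals the highest concentration tested. Otherwise, values were interpolated linearly from a five-concentration, 48-hour dose response in 96-well plates. At the GI50, growth is halved.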 Calls of active or inactive are those of the source. Cut-off read from the data, not from the text of the source: active = GI50 up to about 1.1 µM and inactive = higher.

Regarding `O=C1Nc2cccc(C(F)(F)F)c2/C1=N/Nc1ccccc1[N+](=O)[O-]`, the GI50 was 37.6 µM (inactive) with PC-3; 14.8 µM (inactive) in the experiment on TK-10; 40.9 µM (inactive) in the experiment with SF-268; 0.404 µM (active) with IGROV-1; 23.1 µM (inactive) with NCI-H226; 17.7 µM (inactive) in the experiment on MDA-N. For the same molecule, the GI50 in the experiment with 786-0 is 15.5 µM (inactive); in the experiment with UO-31, 33.9 µM (inactive); in the experiment on UACC-257, 10.3 µM (inactive); in the experiment on SF-295, 16.4 µM (inactive); with COLO 205, 29.4 µM (inactive); in the experiment with RXF 393 it was > 100 µM (inactive). The GI50 with CAKI-1 was > 100 µM (inactive); in the experiment with OVCAR-4, 16.9 µM (inactive); in the experiment with HCT-116, 37.6 µM (inactive); with SR it was 0.912 µM (active); in the experiment on OVCAR-8 it was 26.1 µM (inactive); in the experiment with MDA-MB-435 it was 18.7 µM (inactive). Also, the figures for the GI50 in the experiment on NCI-H460 and in the experiment with ACHN were 17.8 µM (inactive) and 16.1 µM (inactive), respectively.
Turning to `Clc1ccc(C2=Cc3nc2c(-c2ccccc2)c2ccc([nH]2)c(-c2ccccc2)c2nc(c(-c4ccccc4)c4ccc([nH]4)c3-c3ccccc3)C=C2)cc1`, the GI50 with PC-3, with TK-10, with SF-268, with IGROV-1, in the experiment with NCI-H226 and with MDA-N was > 62.5 µM (inactive) in each case. The GI50 in the experiment with 786-0, in the experiment with UO-31, in the experiment on UACC-257, with SF-295, in the experiment with COLO 205 and in the experiment with RXF 393 was > 62.5 µM (inactive) throughout. Further, the GI50 in the experiment with CAKI-1 is 13.9 µM (inactive); with OVCAR-4 it was > 62.5 µM (inactive); in the experiment with HCT-116, > 62.5 µM (inactive); with SR it was > 62.5 µM (inactive); in the experiment on OVCAR-8, > 62.5 µM (inactive); in the experiment on MDA-MB-435, > 62.5 µM (inactive). The GI50 with NCI-H460 and with ACHN was > 62.5 µM (inactive) in each case.
For `Cc1cn([C@H]2C[C@H](N=[N+]=[N-])[C@@H](CO)O2)c(=O)[nH]c1=O` [ZIDOVUDINE], the GI50 with PC-3 is 885 µM (inactive); in the experiment with TK-10, 656 µM (inactive); with IGROV-1, > 100 µM (inactive); with NCI-H226, > 100 µM (inactive); with MDA-N it was 655 µM (inactive); with 786-0 it was > 100 µM (inactive). The GI50 is > 100 µM (inactive) with UO-31; > 100 µM (inactive) in the experiment on UACC-257; 98.4 µM (inactive) with COLO 205; 89.5 µM (inactive) in the experiment on RXF 393; > 97.1 µM (inactive) in the experiment with CAKI-1; > 85.1 µM (inactive) in the experiment with OVCAR-4. The GI50 in the experiment on HCT-116 was 88.5 µM (inactive); with SR, 177 µM (inactive); in the experiment with OVCAR-8 it was 180 µM (inactive); with MDA-MB-435, 565 µM (inactive); in the experiment on NCI-H460, 42.7 µM (inactive); in the experiment on ACHN, > 100 µM (inactive).
In the case of `CC(=O)/N=C1/N(/C=C2\C(=O)Oc3ccccc3C2=O)C(=O)/C(=C/c2ccccc2Cl)N1C`, the GI50 was > 100 µM (inactive) in the experiment with PC-3; 73.8 µM (inactive) with SF-268; > 100 µM (inactive) in the experiment with IGROV-1; > 100 µM (inactive) with NCI-H226; > 100 µM (inactive) in the experiment with MDA-N; > 100 µM (inactive) in the experiment on 786-0. Besides, the GI50 with UACC-257, in the experiment with SF-295, in the experiment with COLO 205, in the experiment on RXF 393, with CAKI-1 and with OVCAR-4 was > 100 µM (inactive) each time. Also, the GI50 with HCT-116 was > 100 µM (inactive); in the experiment with SR it was 69.3 µM (inactive); in the experiment on OVCAR-8, > 100 µM (inactive); in the experiment on MDA-MB-435, > 100 µM (inactive); in the experiment on NCI-H460, > 100 µM (inactive); in the experiment on ACHN, > 100 µM (inactive).
For the molecule `O=[N+]([O-])c1ccc(Cl)c(CNc2ncnc3c2ncn3C2CCCCO2)c1` (centres undefined), the GI50 is 39.3 µM (inactive) in the experiment on PC-3; 31 µM (inactive) with TK-10; 97.9 µM (inactive) with SF-268; 58.2 µM (inactive) in the experiment on IGROV-1; 43.2 µM (inactive) in the experiment on NCI-H226; 12.7 µM (inactive) in the experiment with MDA-N. For the same molecule, the GI50 is 63.8 µM (inactive) in the experiment with 786-0; 22 µM (inactive) in the experiment on UO-31; 52 µM (inactive) with SF-295; 42.2 µM (inactive) in the experiment with COLO 205; 14.9 µM (inactive) in the experiment on RXF 393; > 100 µM (inactive) in the experiment with CAKI-1. For the same molecule, the GI50 in the experiment with OVCAR-4 was 54.1 µM (inactive); in the experiment with HCT-116, 43.2 µM (inactive); in the experiment on SR, 18.5 µM (inactive); with OVCAR-8, 53.6 µM (inactive); in the experiment on MDA-MB-435 it was 13.9 µM (inactive); in the experiment on NCI-H460, 15.3 µM (inactive). The GI50 in the experiment with ACHN is 44.9 µM (inactive).
Take `Cc1cc(O)c(C(O)c2ccccn2)cc1O` (centres undefined): the GI50 in the experiment with PC-3 is 14.1 µM (inactive); with TK-10 it was 16.6 µM (inactive); in the experiment on SF-268 it was 75.7 µM (inactive); in the experiment with IGROV-1, 35.8 µM (inactive); with NCI-H226 it was > 10 µM (inactive); in the experiment with MDA-N, 18.7 µM (inactive). The GI50 with 786-0 was 19.1 µM (inactive); with UO-31 it was 19.1 µM (inactive); in the experiment with UACC-257 it was > 10 µM (inactive); in the experiment on SF-295, > 100 µM (inactive); in the experiment on COLO 205 it was 10 µM (inactive); with RXF 393 it was 16.3 µM (inactive). Further, the GI50 is 11.7 µM (inactive) in the experiment with CAKI-1; 16.7 µM (inactive) in the experiment with HCT-116; 3.01 µM (inactive) in the experiment on SR; 18.8 µM (inactive) with OVCAR-8; 18.7 µM (inactive) in the experiment with MDA-MB-435; 49.2 µM (inactive) in the experiment on NCI-H460. Further, in the experiment on ACHN, the GI50 is 6.01 µM (inactive).
Take `O=[N+]([O-])/C=C/COCc1cc2c(cc1Br)OCO2`: the GI50 is 13 µM (inactive) with PC-3; 17.4 µM (inactive) in the experiment with TK-10; 19.1 µM (inactive) with SF-268; 29.8 µM (inactive) in the experiment with IGROV-1; 18.2 µM (inactive) with MDA-N; 13.8 µM (inactive) with 786-0. Besides, the GI50 in the experiment with UO-31 was 17.2 µM (inactive); with UACC-257, 17.3 µM (inactive); in the experiment with SF-295 it was 36.8 µM (inactive); in the experiment with COLO 205, 23.1 µM (inactive); with RXF 393, 16.7 µM (inactive); in the experiment with CAKI-1, 20.6 µM (inactive). Besides, the GI50 with OVCAR-4 is 18.6 µM (inactive); with HCT-116, 17.6 µM (inactive); with SR it was 23.4 µM (inactive); in the experiment with OVCAR-8, 31.9 µM (inactive); in the experiment with MDA-MB-435, 13.9 µM (inactive); with NCI-H460 it was 29.9 µM (inactive). In addition, the GI50 in the experiment with ACHN was 16.4 µM (inactive).
Take `S=P(C1CCCCC1)(C1CCCCC1)C(c1cccnc1)N1CCCC1` (centres undefined): the GI50 in the experiment with PC-3 is 18.3 µM (inactive); in the experiment on TK-10 it was 18.5 µM (inactive); in the experiment on SF-268, 18.5 µM (inactive); with IGROV-1, 17.9 µM (inactive); with NCI-H226, 19.4 µM (inactive); in the experiment on MDA-N, 20.1 µM (inactive). Moreover, the GI50 with 786-0 is 17.6 µM (inactive); in the experiment on UACC-257 it was > 100 µM (inactive); in the experiment on SF-295, 21.2 µM (inactive); in the experiment with COLO 205 it was 18.9 µM (inactive); with RXF 393, 18.6 µM (inactive); in the experiment on CAKI-1, 17.4 µM (inactive). In addition, the GI50 with OVCAR-4 is 21.5 µM (inactive); in the experiment with HCT-116 it was 18.5 µM (inactive); in the experiment on SR it was 25.5 µM (inactive); in the experiment on OVCAR-8 it was 23.8 µM (inactive); with MDA-MB-435 it was 18.4 µM (inactive); in the experiment on NCI-H460, 20.2 µM (inactive). Moreover, the GI50 in the experiment on ACHN is 20.3 µM (inactive).
With `COC(=O)c1c(O)ccc2c1c1c(n2CCc2ccccc2)C(=O)c2ccccc2C1`, the GI50 is 16.8 µM (inactive) with PC-3; 34.3 µM (inactive) in the experiment on TK-10; 13.7 µM (inactive) in the experiment with SF-268; 19.6 µM (inactive) in the experiment on IGROV-1; 16.3 µM (inactive) with NCI-H226; 24.4 µM (inactive) in the experiment with MDA-N. Besides, the GI50 in the experiment with 786-0 was 17 µM (inactive); with UO-31 it was 20.7 µM (inactive); with UACC-257, 18.5 µM (inactive); with COLO 205, 14.6 µM (inactive); with RXF 393, 13.3 µM (inactive); in the experiment with CAKI-1, 17.2 µM (inactive). In addition, the GI50 is 10.7 µM (inactive) with OVCAR-4; 15.3 µM (inactive) with HCT-116; 29.7 µM (inactive) with SR; 36.3 µM (inactive) in the experiment with OVCAR-8; 18.2 µM (inactive) with MDA-MB-435; 16.7 µM (inactive) with NCI-H460.
`CC1(C)C2CCC(N)(C2)C1N` (centres undefined): the GI50 with PC-3, in the experiment with TK-10, in the experiment with IGROV-1, in the experiment on NCI-H226, in the experiment on MDA-N and with 786-0 was > 100 µM (inactive) each time. The GI50 with UO-31, in the experiment with UACC-257, in the experiment on SF-295, in the experiment with COLO 205, with RXF 393 and with CAKI-1 was > 100 µM (inactive) throughout. Further, the GI50 in the experiment with OVCAR-4, in the experiment on HCT-116, in the experiment on SR, with OVCAR-8, in the experiment on MDA-MB-435 and in the experiment on NCI-H460 was > 100 µM (inactive) throughout. Further, in the experiment with ACHN, the GI50 is > 100 µM (inactive).
